# Measurements from ChEMBL document CHEMBL4837183, “Antiproliferative Bufadienolides from the Bulbs of Drimia altissima” (2021).
# Tests used:
# Format in all cases: functional
# [1] = test system: SF-268; test: Growth inhibition of human SF-268 cells measured after 48 hrs by SRB assay
# [2] = test system: SF-295; test: Growth inhibition of human SF-295 cells measured after 48 hrs by SRB assay
# [3] = test system: SF-539; test: Growth inhibition of human SF-539 cells measured after 48 hrs by SRB assay
# [4] = test system: SNB-19; test: Growth inhibition of human SNB-19 cells measured after 48 hrs by SRB assay
# [5] = test system: SNB-75; test: Growth inhibition of human SNB-75 cells measured after 48 hrs by SRB assay
# [6] = test system: U-251; test: Growth inhibition of human U-251 cells measured after 48 hrs by SRB assay
# [7] = test system: A549; test: Growth inhibition of human A549 cells measured after 48 hrs by SRB assay
# [8] = test system: HOP-62; test: Growth inhibition of human HOP-62 cells measured after 48 hrs by SRB assay
# [9] = test system: HOP-92; test: Growth inhibition of human HOP-92 cells measured after 48 hrs by SRB assay
# [10] = test system: NCI-H226; test: Growth inhibition of human NCI-H226 cells measured after 48 hrs by SRB assay
# [11] = test system: NCI-H23; test: Growth inhibition of human NCI-H23 cells measured after 48 hrs by SRB assay
# [12] = test system: NCI-H322M; test: Growth inhibition of human NCI-H322M cells measured after 48 hrs by SRB assay
# [13] = test system: NCI-H460; test: Growth inhibition of human NCI-H460 cells measured after 48 hrs by SRB assay
# [14] = test system: NCI-H522; test: Growth inhibition of human NCI-H522 cells measured after 48 hrs by SRB assay
# [15] = test system: PC-3; test: Growth inhibition of human PC-3 cells measured after 48 hrs by SRB assay
# [16] = test system: DU-145; test: Growth inhibition of human DU-145 cells measured after 48 hrs by SRB assay
# [17] = test system: IGROV-1; test: Growth inhibition of human IGROV-1 cells measured after 48 hrs by SRB assay
# [18] = test system: OVCAR-3; test: Growth inhibition of human OVCAR-3 cells measured after 48 hrs by SRB assay
# [19] = test system: OVCAR-5; test: Growth inhibition of human OVCAR-5 cells measured after 48 hrs by SRB assay
# [20] = test system: OVCAR-8; test: Growth inhibition of human OVCAR-8 cells measured after 48 hrs by SRB assay
# [21] = test system: NCI/ADR-RES; test: Growth inhibition of human NCI/ADR-RES cells measured after 48 hrs by SRB assay
# [22] = test system: SK-OV-3; test: Growth inhibition of human SK-OV-3 cells measured after 48 hrs by SRB assay
# [23] = test system: 786-0; test: Growth inhibition of human 786-0 cells measured after 48 hrs by SRB assay
# [24] = test system: A498; test: Growth inhibition of human A498 cells measured after 48 hrs by SRB assay
# [25] = test system: ACHN; test: Growth inhibition of human ACHN cells measured after 48 hrs by SRB assay
# [26] = test system: CAKI-1; test: Growth inhibition of human CAKI-1 cells measured after 48 hrs by SRB assay
# [27] = test system: RXF 393; test: Growth inhibition of human RXF 393 cells measured after 48 hrs by SRB assay
# [28] = test system: SN12C; test: Growth inhibition of human SN12C cells measured after 48 hrs by SRB assay
# [29] = test system: TK-10; test: Growth inhibition of human TK-10 cells measured after 48 hrs by SRB assay
# [30] = test system: UO-31; test: Growth inhibition of human UO-31 cells measured after 48 hrs by SRB assay
# [31] = test system: CCRF-CEM; test: Growth inhibition of human CCRF-CEM cells measured after 48 hrs by SRB assay
# [32] = test system: HL-60; test: Growth inhibition of human HL-60 cells measured after 48 hrs by SRB assay
# [33] = test system: K562; test: Growth inhibition of human K562 cells measured after 48 hrs by SRB assay
# [34] = test system: MOLT-4; test: Growth inhibition of human MOLT-4 cells measured after 48 hrs by SRB assay
# [35] = test system: SR; test: Growth inhibition of human SR cells measured after 48 hrs by SRB assay
# [36] = test system: COLO 205; test: Growth inhibition of human COLO 205 cells measured after 48 hrs by SRB assay
# [37] = test system: HCC 2998; test: Growth inhibition of human HCC 2998 cells measured after 48 hrs by SRB assay
# [38] = test system: HCT-116; test: Growth inhibition of human HCT-116 cells measured after 48 hrs by SRB assay
# [39] = test system: HCT-15; test: Growth inhibition of human HCT-15 cells measured after 48 hrs by SRB assay
# [40] = test system: HT-29; test: Growth inhibition of human HT-29 cells measured after 48 hrs by SRB assay
# [41] = test system: KM12; test: Growth inhibition of human KM12 cells measured after 48 hrs by SRB assay
# [42] = test system: SW-620; test: Growth inhibition of human SW-620 cells measured after 48 hrs by SRB assay
# [43] = test system: LOX IMVI; test: Growth inhibition of human LOX IMVI cells measured after 48 hrs by SRB assay
# [44] = test system: Malme-3M; test: Growth inhibition of human Malme-3M cells measured after 48 hrs by SRB assay
# [45] = test system: M14; test: Growth inhibition of human M14 cells measured after 48 hrs by SRB assay
# [46] = test system: MDA-MB-435; test: Growth inhibition of human MDA-MB-435 cells measured after 48 hrs by SRB assay
# [47] = test system: SK-MEL-2; test: Growth inhibition of human SK-MEL-2 cells measured after 48 hrs by SRB assay
# [48] = test system: SK-MEL-28; test: Growth inhibition of human SK-MEL-28 cells measured after 48 hrs by SRB assay
# [49] = test system: SK-MEL-5; test: Growth inhibition of human SK-MEL-5 cells measured after 48 hrs by SRB assay
# [50] = test system: UACC-257; test: Growth inhibition of human UACC-257 cells measured after 48 hrs by SRB assay
# [51] = test system: UACC-62; test: Growth inhibition of human UACC-62 cells measured after 48 hrs by SRB assay
# [52] = test system: MCF7; test: Growth inhibition of human MCF7 cells measured after 48 hrs by SRB assay
# [53] = test system: MDA-MB-231; test: Growth inhibition of human MDA-MB-231 cells measured after 48 hrs by SRB assay
# [54] = test system: Hs-578T; test: Growth inhibition of human Hs-578T cells measured after 48 hrs by SRB assay
# [55] = test system: BT-549; test: Growth inhibition of human BT-549 cells measured after 48 hrs by SRB assay
# [56] = test system: T47D; test: Growth inhibition of human T47D cells measured after 48 hrs by SRB assay
# [57] = test system: MDA-MB-468; test: Growth inhibition of human MDA-MB-468 cells measured after 48 hrs by SRB assay
structure (smiles),measurement,setting,value
C[C@]12C[C@H](O)[C@H]3[C@@H](CCC4=C[C@@H](O[C@@H]5O[C@H](CO)[C@@H](O)[C@H](O)[C@H]5O)CC[C@@]43CO)[C@@]1(O)CC[C@@H]2c1ccc(=O)oc1,GI50,[1],7 nM
same,GI50,[2],11 nM
same,GI50,[3],3 nM
same,GI50,[4],48 nM
same,GI50,[5],23 nM
same,GI50,[6],25 nM
same,GI50,[7],4 nM
same,GI50,[8],6 nM
same,GI50,[9],22 nM
same,GI50,[10],22 nM
same,GI50,[11],8 nM
same,GI50,[12],7 nM
same,GI50,[13],6 nM
same,GI50,[14],6 nM
same,GI50,[15],13 nM
same,GI50,[16],6 nM
same,GI50,[17],16 nM
same,GI50,[18],8 nM
same,GI50,[19],17 nM
same,GI50,[20],15 nM
same,GI50,[21],8 nM
same,GI50,[22],51 nM
same,GI50,[23],7 nM
same,GI50,[24],12 nM
same,GI50,[25],5 nM
same,GI50,[26],8 nM
same,GI50,[27],5 nM
same,GI50,[28],6 nM
same,GI50,[29],8 nM
same,GI50,[30],9 nM
same,GI50,[31],7 nM
same,GI50,[32],7 nM
same,GI50,[33],30 nM
same,GI50,[34],7 nM
same,GI50,[35],24 nM
same,GI50,[36],43 nM
same,GI50,[37],52 nM
same,GI50,[38],5 nM
same,GI50,[39],17 nM
same,GI50,[40],15 nM
same,GI50,[41],29 nM
same,GI50,[42],17 nM
same,GI50,[43],18 nM
same,GI50,[44],17 nM
same,GI50,[45],31 nM
same,GI50,[46],33 nM
same,GI50,[47],45 nM
same,GI50,[48],37 nM
same,GI50,[49],20 nM
same,GI50,[50],42 nM
same,GI50,[51],25 nM
same,GI50,[52],9 nM
same,GI50,[53],53 nM
same,GI50,[54],6 nM
same,GI50,[55],4 nM
same,GI50,[56],24 nM
same,GI50,[57],44 nM
CC(=O)OC[C@H]1O[C@@H](O[C@@H]2C=C3CC[C@@H]4[C@H](C(=O)C[C@]5(C)[C@@H](c6ccc(=O)oc6)CC[C@]45O)[C@@]3(C)CC2)[C@H](OC(C)=O)[C@@H](OC(C)=O)[C@@H]1OC(C)=O,GI50,[1],5640 nM
same,GI50,[2],7350 nM
same,GI50,[3],6010 nM
same,GI50,[4],> 10000 nM
same,GI50,[5],> 10000 nM
same,GI50,[6],> 10000 nM
same,GI50,[7],4780 nM
same,GI50,[8],6880 nM
same,GI50,[9],> 10000 nM
same,GI50,[10],> 10000 nM
same,GI50,[11],8310 nM
same,GI50,[12],> 10000 nM
same,GI50,[13],3530 nM
same,GI50,[14],3960 nM
same,GI50,[15],> 10000 nM
same,GI50,[16],6100 nM
same,GI50,[17],> 10000 nM
same,GI50,[18],4000 nM
same,GI50,[19],> 10000 nM
same,GI50,[20],> 10000 nM
same,GI50,[21],> 10000 nM
same,GI50,[22],> 10000 nM
same,GI50,[23],7330 nM
same,GI50,[24],2890 nM
same,GI50,[25],2320 nM
same,GI50,[26],7280 nM
same,GI50,[27],2310 nM
same,GI50,[28],4850 nM
same,GI50,[29],6220 nM
same,GI50,[30],6060 nM
same,GI50,[31],6970 nM
same,GI50,[32],7370 nM
same,GI50,[33],> 10000 nM
same,GI50,[34],5120 nM
same,GI50,[35],> 10000 nM
same,GI50,[36],> 10000 nM
same,GI50,[37],> 10000 nM
same,GI50,[38],4440 nM
same,GI50,[39],> 10000 nM
same,GI50,[40],> 10000 nM
same,GI50,[41],> 10000 nM
same,GI50,[42],7060 nM
same,GI50,[43],> 10000 nM
same,GI50,[44],9730 nM
same,GI50,[45],> 10000 nM
same,GI50,[46],> 10000 nM
same,GI50,[47],> 10000 nM
same,GI50,[48],> 10000 nM
same,GI50,[49],5090 nM
same,GI50,[50],> 10000 nM
same,GI50,[51],> 10000 nM
same,GI50,[52],7710 nM
same,GI50,[53],> 10000 nM
same,GI50,[54],3790 nM
same,GI50,[55],5010 nM
same,GI50,[56],> 10000 nM
same,GI50,[57],> 10000 nM
